From patent US8791131B2, “Imidazo[1,5]naphthyridine compounds, their pharmaceutical use and compositions” (Pfizer Inc., priority 2008, dated 2014)
Read-outs that look alike come from different tables or passages of the source.

Experiments:
PI3-Kα = PI3-Kα (Mus musculus (Mouse), UniProt P42337); assay: PI3-Kα biochemical assay (in vitro kinase assay, fluorescence polarization); conditions: Ki calculated from IC50, [ATP]=30 uM, Km=25 uM;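 also: Insect-cell-expressed mouse p110/p85 complex converting PI(4,5)P2, product PI(3,4,5)P3 detected by displacing TAMRA-tagged PI(3,4,5)P3 from Grip1 PH domain, lower polarization means more product, room temperature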
mTOR = mTOR (Homo sapiens (Human), UniProt P42345)
[1] = test system: PI3-K (phosphorylation of AKT at serine 473) in BT20 cells; assay: PI3-Kα cellular assay (phospho-AKT Ser473 ELISA in BT20 cells); conditions: Homo sapiens, BT-20, 1 h;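 also: lysates read by ELISA with TMB colour at 450 nm, cells given 0.5% DMSO vehicle serve as positive control and cell-free wells as negative control, duplicate wells per concentration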
[2] = read-out: S473 pAKT 0.5% FBS IC50 (μM)
[3] = read-out: S473 pAKT 10% FBS IC50 (μM)

mTOR, sequence (P42345 2156-2469): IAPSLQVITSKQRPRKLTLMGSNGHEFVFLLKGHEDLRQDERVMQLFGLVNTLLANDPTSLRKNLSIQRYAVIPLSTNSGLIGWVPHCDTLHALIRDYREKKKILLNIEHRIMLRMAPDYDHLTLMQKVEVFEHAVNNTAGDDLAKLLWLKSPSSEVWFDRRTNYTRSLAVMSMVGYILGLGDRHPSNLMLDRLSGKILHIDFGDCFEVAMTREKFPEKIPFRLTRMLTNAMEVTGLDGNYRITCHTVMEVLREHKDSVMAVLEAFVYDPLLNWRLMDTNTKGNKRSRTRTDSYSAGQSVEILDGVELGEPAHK
PI3-Kα, sequence (P42337 whole entry, the tested form may be a part): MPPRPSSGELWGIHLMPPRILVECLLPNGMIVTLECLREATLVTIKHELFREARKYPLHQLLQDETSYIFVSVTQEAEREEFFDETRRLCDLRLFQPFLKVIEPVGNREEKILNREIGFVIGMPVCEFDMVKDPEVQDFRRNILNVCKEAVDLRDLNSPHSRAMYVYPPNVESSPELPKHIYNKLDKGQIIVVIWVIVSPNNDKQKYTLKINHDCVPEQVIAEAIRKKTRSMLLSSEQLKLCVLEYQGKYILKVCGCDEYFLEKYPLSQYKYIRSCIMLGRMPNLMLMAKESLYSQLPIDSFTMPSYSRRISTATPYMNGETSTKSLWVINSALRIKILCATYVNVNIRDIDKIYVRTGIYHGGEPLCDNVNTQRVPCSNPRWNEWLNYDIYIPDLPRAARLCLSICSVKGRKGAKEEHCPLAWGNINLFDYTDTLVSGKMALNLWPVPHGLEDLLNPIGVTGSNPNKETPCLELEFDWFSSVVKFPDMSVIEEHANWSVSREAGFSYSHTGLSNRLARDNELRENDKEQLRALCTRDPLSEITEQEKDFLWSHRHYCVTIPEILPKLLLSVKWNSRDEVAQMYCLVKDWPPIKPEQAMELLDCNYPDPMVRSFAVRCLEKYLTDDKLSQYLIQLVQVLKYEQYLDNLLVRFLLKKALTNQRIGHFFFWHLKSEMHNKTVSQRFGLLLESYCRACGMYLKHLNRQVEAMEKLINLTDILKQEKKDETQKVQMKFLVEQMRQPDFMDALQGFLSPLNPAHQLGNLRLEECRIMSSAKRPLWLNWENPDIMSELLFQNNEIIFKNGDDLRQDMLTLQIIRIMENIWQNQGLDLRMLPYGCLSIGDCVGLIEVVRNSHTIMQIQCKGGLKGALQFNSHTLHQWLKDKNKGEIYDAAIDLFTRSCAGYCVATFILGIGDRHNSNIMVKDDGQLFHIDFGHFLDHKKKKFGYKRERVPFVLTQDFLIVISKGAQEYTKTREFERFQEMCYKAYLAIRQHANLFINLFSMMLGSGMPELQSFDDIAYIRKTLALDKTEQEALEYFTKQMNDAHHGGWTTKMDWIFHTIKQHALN
PI3-Kα, sequence (P26450 whole entry partner, the tested form may be a part): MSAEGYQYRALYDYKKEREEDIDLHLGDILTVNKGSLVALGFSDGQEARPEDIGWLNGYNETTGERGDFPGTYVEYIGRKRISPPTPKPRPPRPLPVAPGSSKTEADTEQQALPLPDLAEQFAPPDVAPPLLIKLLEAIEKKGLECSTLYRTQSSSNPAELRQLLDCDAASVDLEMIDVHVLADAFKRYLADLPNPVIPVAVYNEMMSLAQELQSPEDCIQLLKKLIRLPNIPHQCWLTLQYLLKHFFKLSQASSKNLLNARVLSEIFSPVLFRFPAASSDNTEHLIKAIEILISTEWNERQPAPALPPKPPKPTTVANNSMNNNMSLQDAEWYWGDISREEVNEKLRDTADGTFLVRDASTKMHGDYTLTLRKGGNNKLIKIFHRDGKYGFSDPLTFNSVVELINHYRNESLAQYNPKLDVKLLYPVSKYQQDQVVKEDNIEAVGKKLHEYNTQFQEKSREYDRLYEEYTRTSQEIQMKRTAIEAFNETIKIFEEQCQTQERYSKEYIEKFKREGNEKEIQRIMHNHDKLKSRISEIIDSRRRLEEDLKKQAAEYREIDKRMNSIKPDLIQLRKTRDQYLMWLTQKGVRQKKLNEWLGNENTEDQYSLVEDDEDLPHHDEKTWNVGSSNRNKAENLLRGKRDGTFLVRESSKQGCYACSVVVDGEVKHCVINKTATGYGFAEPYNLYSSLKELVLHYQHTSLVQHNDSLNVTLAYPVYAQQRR

SMILES	PI3Ka Ki (PI3-Kα) [nM]	Ki (mTOR) [nM]	IC50 [1, 2] [µM]	IC50 [1, 3] [µM]
COC(=O)N1CCC(n2c(=O)n(C)c3cnc4ccc(-c5cnc6ccccc6c5)nc4c32)CC1 [Compound 122, methyl4-(3-methyl-2-oxo-8-quinolin-3-yl-2,3-dihydro-1H-imidazo[4,5-c][1,5]napthyridin-1-yl)piperidine-1-carboxylate]	0.806	12.4	0.00807	–
COc1cccc(-c2ccc3ncc4c(c3n2)n(C2CCN(C(=O)CO)CC2)c(=O)n4C)c1 [Compound 276, 1-(1-glycoloylpiperidin-4-yl)-8-(3-methoxyphenyl)-3-methyl-1,3-dihydro-2H-imidazo[4,5-c][1,5]naphthyridin-2-one]	2.22	10.2	–	0.0304
CC(C)OC(=O)N1CCC(n2c(=O)n(C)c3cnc4ccc(-c5cnc6ccccc6c5)nc4c32)CC1 [Compound 128, isopropyl 4-(3-methyl-2-oxo-8-quinolin-3-yl-2,3-dihydro-1H-imidazo[4,5-c][1,5]naphthyridin-1-yl)piperidine-1-carboxylate]	2.89	9.72	0.0196	–
Cn1cc(-c2ccc3ncc4c(c3n2)n(-c2ccc(C(C)(C)C#N)cc2)c(=O)n4C)cn1 [Compound 114, 2-Methyl-2-{4-[3-methyl-8-(1-methyl-1H-pyrazol-4-yl)-2-oxo-2,3-dihydro-1,3,5,9-tetraaza-cyclopenta[a]naphthalen-1-yl]-phenyl}-propionitrile]	72.3	40.2	0.116	–
CN(C)c1ccc(-c2ccc3ncc4c(c3n2)n(C2CCOCC2)c(=O)n4C)cn1 [Compound 204, 8-[6-(dimethylamino)pyridin-3-yl]-3-methyl-1-(tetrahydro-2H-pyran-4-yl)-1,3-dihydro-2H-imidazo[4,5-c][1,5]naphthyridin-2-one]	0.298	12.7	–	0.029
COc1ncc(-c2ccc3ncc4c(c3n2)n(C2CCN(C(=O)CN)CC2)c(=O)n4C)cn1 [Compound 184, 1-(1-glycylpiperidin-4-yl)-8-(2-methoxypyrimidin-5-yl)-3-methyl-1,3-dihydro-2H-imidazo[4,5-c][1,5]naphthyridin-2-one]	3.93	13.3	–	0.184
COc1ncc(-c2ccc3ncc4[nH]c(=O)n(-c5ccc(C(C)(C)C#N)cc5)c4c3n2)cc1F [Compound 109, 2-(4-(8-(5-fluoro-6-methoxypyridin-3-yl)-2-oxo-2,3-dihydroimidazo[4,5-c][1,5]naphthyridin-1-yl)phenyl)-2-methylpropanenitrile]	3.81	9.03	0.197	–
Cn1c(=O)n(C2CCN(C(=O)CO)CC2)c2c3nc(-c4cnc5[nH]ncc5c4)ccc3ncc21 [Compound 262, 1-(1-glycoloylpiperidin-4-yl)-3-methyl-8-(1H-pyrazolo[3,4-b]pyridin-5-yl)-1,3-dihydro-2H-imidazo[4,5-c][1,5]naphthyridin-2-one]	0.32	4.06	–	0.0594
Cn1c(=O)n(C2CCOCC2)c2c3nc(-c4cnn(CCO)c4)ccc3ncc21 [Compound 208, 8-[1-(2-hydroxyethyl)-1H-pyrazol-4-yl]-3-methyl-1-(tetrahydro-2H-pyran-4-yl)-1,3-dihydro-2H-imidazo[4,5-c][1,5]naphthyridin-2-one]	24.4	44.2	–	0.579
C[C@H](CO)n1c(=O)n(C)c2cnc3ccc(-c4cnc(N)nc4)nc3c21 [Compound 235, 8-(2-aminopyrimidin-5-yl)-1-[(1R)-2-hydroxy-1-methylethyl]-3-methyl-1,3-dihydro-2H-imidazo[4,5-c][1,5]naphthyridin-2-one]	15.5	6.99	–	0.331
CC(=O)N1CCC(n2c(=O)n(C)c3cnc4ccc(-c5ccc(N(C)C)nc5)nc4c32)CC1 [Compound 195, 1-(1-acetylpiperidin-4-yl)-8-[6-(dimethylamino)pyridin-3-yl]-3-methyl-1,3-dihydro-2H-imidazo[4,5-c][1,5]naphthyridin-2-one]	0.391	1.72	–	0.0172
CN(C)c1ccc(-c2ccc3ncc4c(c3n2)n(C2CCN(C(=O)C(C)(C)C)CC2)c(=O)n4C)cn1 [Compound 205, 8-[6-(dimethylamino)pyridin-3-yl]-1-[1-(2,2-dimethylpropanoyl)piperidin-4-yl]-3-methyl-1,3-dihydro-2H-imidazo[4,5-c][1,5]naphthyridin-2-one]	0.281	4.38	–	0.0214
O=c1[nH]c2cnc3ccc(-c4cnc5ccccc5c4)nc3c2n1C1CCNCC1 [Compound 117, 1-piperidin-4-yl-8-quinolin-3-yl-1,3-dihydro-2H-imidazo[4,5-c][1,5]naphthyridin-2-one]	2.43	12.4	–	0.353
CCC(=O)N1CCC(n2c(=O)n(C)c3cnc4ccc(-c5cnc6ccccc6c5)nc4c32)CC1 [Compound 121, 3-methyl-1-(1-propionylpiperidin-4-yl)-8-quinolin-3-yl-1,3-dihydro-2H-imidazo[4,5-c][1,5]naphthyridin-2-one]	0.539	7.9	0.00786	–
Cn1c(=O)n(C2CCOCC2)c2c3nc(-c4cn[nH]c4)ccc3ncc21 [Compound 199, 3-methyl-8-(1H-pyrazol-4-yl)-1-(tetrahydro-2H-pyran-4-yl)-1,3-dihydro-2H-imidazo[4,5-c][1,5]naphthyridin-2-one]	11.3	1.03	–	0.0183
Cn1c(=O)n(C2CCNCC2)c2c3nc(-c4cnc(N)nc4)ccc3ncc21 [Compound 227, 8-(2-aminopyrimidin-5-yl)-3-methyl-1-piperidin-4-yl-1,3-dihydro-2H-imidazo[4,5-c][1,5]naphthyridin-2-one]	1.61	3.61	–	0.137
C[C@@H](O)C(=O)N1CCC(n2c(=O)n(C)c3cnc4ccc(-c5ccc(N(C)C)nc5)nc4c32)CC1 [Compound 214, 8-[6-(dimethylamino)pyridin-3-yl]-1-{1-[(2R)-2-hydroxypropanoyl]piperidin-4-yl}-3-methyl-1,3-dihydro-2H-imidazo[4,5-c][1,5]naphthyridin-2-one]	0.397	1.74	–	0.00553
Cc1ccc(-c2ccc3ncc4c(c3n2)n(C2CCN(CCO)CC2)c(=O)n4C)cn1 [Compound 166, 1-[1-(2-hydroxyethyl)piperidin-4-yl]-3-methyl-8-(6-methylpyridin-3-yl)-1,3-dihydro-2H-imidazo[4,5-c][1,5]naphthyridin-2-one]	1.77	17.6	–	0.0356
CNC(=O)N1CCC(n2c(=O)n(C)c3cnc4ccc(-c5cnc6ccccc6c5)nc4c32)CC1 [Compound 123, N-methyl-4-(3-methyl-2-oxo-8-quinolin-3-yl-2,3-dihydro-1H-imidazo[4,5-c][1,5]naphthyridin-1-yl)piperidine-1-carboxamide]	1.96	4.91	0.00734	–
Cc1ccc(-c2ccc3ncc4c(c3n2)n(C2CCN(c3ncccn3)CC2)c(=O)n4C)cn1 [Compound 165, 3-methyl-8-(6-methylpyridin-3-yl)-1-(1-pyrimidin-2-ylpiperidin-4-yl)-1,3-dihydro-2H-imidazo[4,5-c][1,5]naphthyridin-2-one]	3.52	73.2	–	0.0414
Cn1c(=O)n([C@H]2CC[C@H](O)CC2)c2c3nc(-c4ccc5[nH]ncc5c4)ccc3ncc21 [Compound 267, 1-(trans-4-hydroxycyclohexyl)-8-(1H-indazol-5-yl)-3-methyl-1,3-dihydro-2H-imidazo[4,5-c][1,5]naphthyridin-2-one]	0.145	0.359	–	0.0205
CC(=O)N1CCC(n2c(=O)n(C)c3cnc4ccc(-c5ccc(N)nc5)nc4c32)CC1 [Compound 242, 1-(1-acetylpiperidin-4-yl)-8-(6-aminopyridin-3-yl)-3-methyl-1,3-dihydro-2H-imidazo[4,5-c][1,5]naphthyridin-2-one]	0.252	0.299	–	0.00917
Cn1c(=O)n([C@H]2CC[C@H](O)CC2)c2c3nc(-c4cn[nH]c4)ccc3ncc21 [Compound 168, 1-(trans-4-hydroxycyclohexyl)-3-methyl-8-(1H-pyrazol-4-yl)-1,3-dihydro-2H-imidazo[4,5-c][1,5]naphthyridin-2-one]	4.17	0.204	–	0.0197
Cn1c(=O)n([C@H]2CC[C@H](OCCO)CC2)c2c3nc(-c4cnc5ccccc5c4)ccc3ncc21 [Compound 147, 1-[trans-4-(2-hydroxyethoxy)cyclohexyl]-3-methyl-8-quinolin-3-yl-1,3-dihydro-2H-imidazol[4,5-c][1,5]naphthyridin-2-one]	1.08	10.1	–	0.0107
Cn1cc(-c2ccc3ncc4c(c3n2)n(C2CCN(CC(N)=O)CC2)c(=O)n4C)cn1 [Compound 211, 2-{4-[3-methyl-8-(1-methyl-1H-pyrazol-4-yl)-2-oxo-2,3-dihydro-1H-imidazo[4,5-c][1,5]naphthyridin-1-yl]piperidin-1-yl}acetamide]	4.63	7.55	–	0.232
C[C@@H](CO)n1c(=O)n(C)c2cnc3ccc(-c4cnn(C)c4)nc3c21 [Compound 239, 1-[(1S)-2-hydroxy-1-methylethyl]-3-methyl-8-(1-methyl-1H-pyrazol-4-yl)-1,3-dihydro-2H-imidazo[4,5-c][1,5]naphthyridin-2-one]	102	311	–	5.04
